Data on three compounds can be found in patent US7662361B2, “Methods and compositions for modulating drug activity through telomere damage” (priority 1999, dated 2010).

Holding throughout (type): cell-based, human
Assay [1] deals with FaDu cells. The experiment in a line: Cell growth of hTR antisense transfected cells. The following applies: stably transfected FaDu cells. An excerpt: Transfection procedures. Transfection of the antisense construct used an IPTG-inducible mammalian expression system, i.e., the LacSwitch II system (Stratagene), which consists of a recombinant vector (i.e., pOPRSVI) and an operator vector (i.e., pCMVLacI). The pOPRSVI vector contains both ampicillin and G418^r resistance genes which facilitate the selection of positive clones from E. Coli and eukaryotic cells. The 8 unique cloning sites of the vector facilitate bi-directional insertion of a cDNA to produce either sense or antisense transcripts. The Lac repressor vector (pCMVLacI) produces the Lac repressor protein, which binds to and inhibits the operator sequence in the pOPRSVI vector and thereby inhibits the expression of the inserted gene. IPTG decreases the binding affinity of the Lac repressor protein to the operator sequence and triggers transcription and expression of the inserted gene. The transfection procedures consisted of stable transfection of FaDu cells with first, the pCMVLacI vector, and then second, the pOPRSVI/MCS vector which contained an antisense or sense hTR fragment. Transfection was performed using Lipofectamine-mediated gene transfer. The selection of the clones expressing the pCMVLacI repressor construct was performed using […] of the antibiotic hygromycin. The selection of the clones expressing the pOPRSVI vector using G418. […]

Assay [2] concerns FaDu cells. The experiment in a line: TALA telomere length in hTR antisense transfected cells.
Another assay deals with telomerase (hTR). The experiment in a line: Improved TRAP telomerase activity in hTR antisense transfected cells. As to the method:
First, the extraction procedures in the conventional TRAP were not sufficient to completely lyse the cell nuclei and the extraction efficiency varied with the ratio between the volume of the extraction buffer and the volume of cells. […] For the preparation of cell and tissue extracts, cells and tissue were harvested, washed, and stored at −70° C. Cells were then lysed in a SDS-based lysis buffer (10 mM Tris.HCl, pH 7.5, 1 mM MgCl2, 1 mM EGTA, 0.1 mM phenylmethylsulfonyl fluoride, 5 mM β-mercaptoethanol, 0.1% CHAPS, and 10% glycerol), on ice for 10 min. To this mixture, three volumes of CHAPS-based buffer (10 mM Tris-HCl, pH 7.5, 1 mM MgCl2, 1 mM EGTA, 0.1 mM phenylmethylsulfonyl fluoride, 5 mM β-mercaptoethanol, 0.5% CHAPS, and 10% glycerol) were added and kept on ice for 5 min. SDS is a strong detergent which can completely lyse the cell including the nucleus. […] The protein concentration of the supernatant was determined using Bicinchoninic Acid Kit (Sigma, St Louis, Mo.). […] Samples with equal amounts of protein (1-2 μg) were analyzed by TRAP. In this assay, the enzyme activity is measured as the synthesis of repeating telomere hexamers (TTAGGG; SEQ ID NO: 10). […]

The test system of assay [3] is telomerase activity of FaDu cells. The experiment in a line: TRAP telomerase activity in drug-treated cells. The following applies: cisplatin treatment, 48 to 96 hr.
Description: For the preparation of cell and tissue extracts, cells and tissue were harvested, washed, and stored at −70° C. Cells were then lysed in a SDS-based lysis buffer (10 mM Tris.HCl, pH 7.5, 1 mM MgCl2, 1 mM EGTA, 0.1 mM phenylmethylsulfonyl fluoride, 5 mM β-mercaptoethanol, 0.1% CHAPS, and 10% glycerol), on ice for 10 min. To this mixture, three volumes of CHAPS-based buffer (10 mM Tris-HCl, pH 7.5, 1 mM MgCl2, 1 mM EGTA, 0.1 mM phenylmethylsulfonyl fluoride, 5 mM β-mercaptoethanol, 0.5% CHAPS, and 10% glycerol) were added and kept on ice for 5 min. […] For the extraction of tissues, tissues were homogenized in SDS-based lysis buffer with a Kontes pellet pestle (Fisher, Pittsburgh, Pa.), mixed with three volumes of CHAPS-based buffer, and centrifuged were centrifuged at 8,000 g for 15 min at 4° C. The supernatant was kept at −20° C. The protein concentration of the supernatant was determined using Bicinchoninic Acid Kit (Sigma, St Louis, Mo.). The protein concentration was adjusted to 0.5 μg/μl with CHAPS-based buffer. Samples with equal amounts of protein (1-2 μg) were analyzed by TRAP. […] The TRAP reaction mixture contained 2-4 μl of protein extract, 20 mM Tris.HCl (pH 8.3), 1.5 mM MgCl2, 63 mM KCl, 0.005% Tween-20, 1 mM EGTA, 50 μM dNTPs, 0.1 μg of TS primer, 0.1 mg/ml bovine serum albumin. The mixture was incubated at 30° C. for 30 min, then at 90° C. for 2 min.
This was accomplished by using phenol/chloroform extraction of the cell lysate, as follows. One μg of tRNA and 0.1 ng internal control template were added to the reaction solution after primer extension. The total volume of the mixture was brought to 100 μl with water, mixed with an equal volume of buffer saturated phenol (Life Technology) and then centrifuged at 18,000 g for 3 min, at room temperature. The top aqueous layer (90 μl) was carefully transferred to a new tube and mixed with an equal volume of chloroform:isoamyl alcohol (24:1) solution and centrifuged at 18,000 g for 3 min, at room temperature. The top aqueous layer (80 μl) was again transferred to a new tube and the nucleotides were precipitated with 0.2 volume of 3 M sodium acetate (pH 5.3) and 3 volume of 100% ethanol at −70° C. for at least 2 hr. The mixture was centrifuged at 18,000 g for 15 min at 4° C. […]
The template for the internal standard was amplified by PCR and purified by spin columns (QIAquick PCR purification kit, Qiagen, Valencia, Calif.). The concentration was determined by a spectrophotometer.
PCR was performed on the GeneAmp PCR system 2400 (Perkin Elmer) and initiated by 1 cycle at 94° C. for 3 min, 50° C. for 4 min, and 68° C. for 2 min, then 25 rounds at 94° C. for 30 sec, 50° C. for 30 sec, and 68° C. for 90 sec, followed by 68° C. for 10 min. […] The gel was then dried and the amplification products were detected. […]
The subject of assay [4] is FaDu cells. The assay can be described thus: Cell detachment from the growth surface.
Description: Upon drug treatment, the supernatant along with two subsequent Versene rinses, which contained the detached cells, were collected. […] These samples were centrifuged at 1500 rpm for 10 min and the resulting cell pellets were resuspended in 2 ml of culture media. The cell number in the detached and attached fractions were counted using a Coulter counter (Coulter Electronic, Inc., Hialeah, Fla.).
Treatment with the above agents was initiated after cells were allowed to attach to the growth surface in culture flasks. On the day of experiments, the culture medium was removed and replaced with drug-containing medium. […] For d4T, two concentrations, 20 μM and 40 μM were used.
Agent effect was measured in three ways, i.e., enumeration of the number of cells that remained attached in culture flask, enumeration of the number of cells that detached from the growth surface, and by measuring changes in apoptosis. […] The drug-induced detachment of cells from the growth surface was determined by counting the attached and detached cells.

Molecules are shown by their SMILES.

For `CC(C)S[C@@H]1O[C@H](CO)[C@H](O)[C@H](O)[C@H]1O` [+IPTG], the Doubling time with FaDu cells [1] came to 23 h. The Terminal restriction fragment in the assay with FaDu cells [2] is on record as 2.91 kb. For the same compound, the telomerase activity with telomerase (hTR) is recorded as 98.9 % of control.

As for `N.N.[Cl][Pt][Cl]` [cisplatin], the telomerase activity in assay [3] is 50 % of the baseline level.

Regarding `Cc1cn([C@H]2C=C[C@@H](CO)O2)c(=O)[nH]c1=O` [d4T, 3′-deoxy-2′,3′-didehydrothymidine], the “detachment of cells from the growth surface” value in the assay with FaDu cells [4] (d4T 20 μM and 40 μM) is recorded as under 8%. Further, the “effect of addition of d4T to paclitaxel on detached cell fraction” value with FaDu cells [4] (d4T 20 or 40 μM) is “significantly enhanced the detached cell fraction”.
